Measurements from ChEMBL document CHEMBL1250504, “Antihypertensive and antiarrhythmic properties of a para-hydroxy[bis(ortho-morpholinylmethyl)]phenyl-1,4-DHP compound: comparison with other compounds of the same kind and relationship with logP values” (Eur J Med Chem, 2010).
The source made the active and inactive calls. The calls are words filed in the database; no cut-off is given here.

Experiments:
Rattus norvegicus [1] = experiment: Antihypertensive activity in Wistar rat invasive arterial pressure model assessed as reduction of diastolic pressure at 0.1 mg/kg, iv; type: functional, organism-based; set-up: dose 0.1 mg/kg; details: Artery
Rattus norvegicus [2] = experiment: Antihypertensive activity in Wistar rat invasive arterial pressure model assessed as reduction of systolic pressure at 0.1 mg/kg, iv; type: functional, organism-based; set-up: dose 0.1 mg/kg; details: Artery
Rattus norvegicus [3] = experiment: Antiarrhythmic activity in Wistar rat invasive arterial pressure model assessed as reduction of heart rate at 0.1 mg/kg, iv; type: functional, organism-based; set-up: dose 0.1 mg/kg
Rattus norvegicus [4] = experiment: Antihypertensive activity in spontaneous hypertensive rat model assessed as reduction of diastolic pressure at 0.1 mg/kg, po after 50 mins; type: functional, organism-based; set-up: dose 0.1 mg/kg
Rattus norvegicus [5] = experiment: Antihypertensive activity in spontaneous hypertensive rat model assessed as reduction of systolic pressure at 0.1 mg/kg, po after 50 mins; type: functional, organism-based; set-up: dose 0.1 mg/kg
Rattus norvegicus [6] = experiment: Antihypertensive activity in spontaneous hypertensive rat model assessed as reduction of diastolic pressure at 0.1 mg/kg, po after 120 mins; type: functional, organism-based; set-up: dose 0.1 mg/kg
Rattus norvegicus [7] = experiment: Antihypertensive activity in spontaneous hypertensive rat model assessed as reduction of systolic pressure at 0.1 mg/kg, po after 120 mins; type: functional, organism-based; set-up: dose 0.1 mg/kg
Rattus norvegicus [8] = experiment: Antiarrhythmic activity in spontaneous hypertensive rat model assessed as reduction of heart rate at 0.1 mg/kg, po after 120 mins; type: functional, organism-based; set-up: dose 0.1 mg/kg
Rattus norvegicus [9] = experiment: Antiarrhythmic activity in spontaneous hypertensive rat model assessed as reduction of heart rate at 0.1 mg/kg, po after 40 mins; type: functional, organism-based; set-up: dose 0.1 mg/kg
[10] = Octanol-water partition coefficient, log P of the compound
Rattus norvegicus [11] = experiment: Antihypertensive activity in Wistar rat invasive arterial pressure model assessed as reduction of diastolic pressure at 1 mg/kg, iv; type: functional, organism-based; set-up: dose 1 mg/kg; details: Artery
Rattus norvegicus [12] = experiment: Antihypertensive activity in Wistar rat invasive arterial pressure model assessed as reduction of systolic pressure at 1 mg/kg, iv; type: functional, organism-based; set-up: dose 1 mg/kg; details: Artery

| Compound | Activity (Rattus norvegicus [3]) | logP [10] | Activity (Rattus norvegicus [11]) | Activity (Rattus norvegicus [12]) | also measured |
| --- | --- | --- | --- | --- | --- |
| CCOC(=O)C1=C(C)NC(C)=C(C(=O)OCC)C1c1cc(CN2CCOCC2)c(O)c(CN2CCOCC2)c1 | Active | 2.7 |  |  | Activity (Rattus norvegicus [1]): Active; Activity (Rattus norvegicus [2]): Active; Activity (Rattus norvegicus [4]): Active; Activity (Rattus norvegicus [5]): Active; Activity (Rattus norvegicus [6]): Active; Activity (Rattus norvegicus [7]): Active; Activity (Rattus norvegicus [8]): Active; Activity (Rattus norvegicus [9]): Active |
| C[C@H](CS)C(=O)N1CCC[C@H]1C(=O)O [CAPTOPRIL] |  | 1.02 |  |  |  |
| Oc1ccc(Cl)cc1CN1CCSCC1 | Active | > 3.05 | Active | Active |  |
| CC(C)(C)c1ccc(O)c(CN2CCSCC2)c1 | Active | 1.96 | Active | Active |  |
| CCCCc1nc(Cl)c(CO)n1Cc1ccc(-c2ccccc2-c2nn[nH]n2)cc1 [LOSARTAN] |  | 4.01 |  |  |  |
| CC(C)(C)c1cc(CN2CCSCC2)c(O)c(CN2CCSCC2)c1 | Active | 2.03 | Active | Active |  |
